ChEMBL document CHEMBL2331086, “Pharmacological properties and predicted binding mode of arylmethylene quinuclidine-like derivatives at the α3β4 nicotinic acetylcholine receptor (nAChR)” (Bioorg Med Chem Lett, 2013)
Calls of active or inactive are those of the source. The rule behind the calls is not given here.

Tests used:
[1] = target: T1, Neuronal acetylcholine receptor; alpha3/beta4 (Homo sapiens, UniProt P30926+P32297); test: Agonist activity at human alpha3beta4 nAChR expressed in CHO cells assessed as calcium influx by calcium-4 based FLIPR analysis; format: cell-based
T1 sequence (P30926 whole entry): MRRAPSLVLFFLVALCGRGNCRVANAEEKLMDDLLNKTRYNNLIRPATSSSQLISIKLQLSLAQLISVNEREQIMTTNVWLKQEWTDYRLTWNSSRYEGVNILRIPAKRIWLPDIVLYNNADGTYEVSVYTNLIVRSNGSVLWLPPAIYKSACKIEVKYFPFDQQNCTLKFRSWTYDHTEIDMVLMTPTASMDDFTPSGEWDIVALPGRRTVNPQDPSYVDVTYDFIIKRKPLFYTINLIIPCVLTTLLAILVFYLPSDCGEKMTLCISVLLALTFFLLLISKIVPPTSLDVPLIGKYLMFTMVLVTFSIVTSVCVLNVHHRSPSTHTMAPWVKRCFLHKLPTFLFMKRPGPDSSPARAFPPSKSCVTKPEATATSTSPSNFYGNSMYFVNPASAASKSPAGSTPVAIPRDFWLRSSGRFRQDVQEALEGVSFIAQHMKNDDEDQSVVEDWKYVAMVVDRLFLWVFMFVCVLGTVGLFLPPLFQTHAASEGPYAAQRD
T1 sequence (P32297 whole entry): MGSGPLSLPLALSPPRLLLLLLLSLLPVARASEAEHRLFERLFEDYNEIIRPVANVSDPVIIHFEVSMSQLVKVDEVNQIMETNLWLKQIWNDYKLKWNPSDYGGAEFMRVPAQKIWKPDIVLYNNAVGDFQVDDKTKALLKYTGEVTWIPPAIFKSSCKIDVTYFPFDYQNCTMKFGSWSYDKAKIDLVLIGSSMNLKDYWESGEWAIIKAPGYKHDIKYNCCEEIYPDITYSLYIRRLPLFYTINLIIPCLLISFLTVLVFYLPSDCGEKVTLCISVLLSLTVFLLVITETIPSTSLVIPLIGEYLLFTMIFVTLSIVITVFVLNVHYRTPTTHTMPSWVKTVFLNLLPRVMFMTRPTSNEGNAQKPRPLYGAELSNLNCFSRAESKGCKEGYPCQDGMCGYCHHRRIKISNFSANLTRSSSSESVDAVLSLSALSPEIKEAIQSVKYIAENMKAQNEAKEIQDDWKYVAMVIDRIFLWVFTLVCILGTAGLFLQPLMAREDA

[2] = target: T1, Neuronal acetylcholine receptor; alpha3/beta4; test: Agonist activity at human alpha3beta4 nAChR expressed in CHO cells at 0.1 uM by electrophysiological analysis relative to acetylcholine; format: cell-based
[3] = target: T1, Neuronal acetylcholine receptor; alpha3/beta4; test: Agonist activity at human alpha3beta4 nAChR expressed in CHO cells at 1 uM by electrophysiological analysis relative to acetylcholine; format: cell-based
[4] = target: T1, Neuronal acetylcholine receptor; alpha3/beta4; test: Displacement of [3H]epibatidine from human alpha3beta4 nAChR expressed in CHO cells after 2 hrs by liquid scintillation counting; format: cell-based
[5] = target: T1, Neuronal acetylcholine receptor; alpha3/beta4; test: Non-competitive antagonist activity at human alpha3beta4 nAChR expressed in CHO cells assessed as inhibition of nicotine-induced calcium influx incubated for 30 mins prior to nicotine-induction by calcium-4 based FLIPR analysis; format: cell-based
[6] = target: T1, Neuronal acetylcholine receptor; alpha3/beta4; test: Reversible inhibition of human alpha3beta4 nAChR expressed in CHO cells assessed as inhibition of acetylcholine-induced response at 1 uM measured after compound washout by electrophysiological method; format: cell-based
[7] = target: T1, Neuronal acetylcholine receptor; alpha3/beta4; test: Agonist activity at human alpha3beta4 nAChR expressed in CHO cells assessed as calcium influx by calcium-4 based FLIPR analysis relative to nicotine; format: cell-based
[8] = target: T1, Neuronal acetylcholine receptor; alpha3/beta4; test: Inhibition of human alpha3beta4 nAChR expressed in CHO cells assessed as inhibition of calcium influx by calcium-4 based FLIPR analysis; format: cell-based
[9] = target: T1, Neuronal acetylcholine receptor; alpha3/beta4; test: Agonist activity at human alpha3beta4 nAChR expressed in CHO cells at 10 uM by electrophysiological analysis relative to acetylcholine; format: cell-based
[10] = target: T2, Muscarinic acetylcholine receptor M1 (Rattus norvegicus, UniProt P08482); test: Antagonist activity at rat muscarinic M1 receptor isolated from brain
T2 sequence (P08482 whole entry): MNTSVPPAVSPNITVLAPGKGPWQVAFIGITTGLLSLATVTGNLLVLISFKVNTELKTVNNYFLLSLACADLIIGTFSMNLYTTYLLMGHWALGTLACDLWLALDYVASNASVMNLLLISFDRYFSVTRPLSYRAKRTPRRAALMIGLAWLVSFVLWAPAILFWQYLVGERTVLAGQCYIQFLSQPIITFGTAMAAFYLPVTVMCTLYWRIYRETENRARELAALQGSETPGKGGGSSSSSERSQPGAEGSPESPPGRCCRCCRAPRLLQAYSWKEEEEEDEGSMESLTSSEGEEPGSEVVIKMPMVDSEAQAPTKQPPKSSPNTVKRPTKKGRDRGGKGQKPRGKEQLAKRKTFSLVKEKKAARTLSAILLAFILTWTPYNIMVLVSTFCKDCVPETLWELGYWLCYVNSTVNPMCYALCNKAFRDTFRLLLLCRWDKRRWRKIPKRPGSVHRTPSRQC

[11] = target: T3, Muscarinic acetylcholine receptor M2 (Rattus norvegicus, UniProt P10980); test: Antagonist activity at rat muscarinic M2 receptor isolated from brain
T3 sequence (P10980 whole entry): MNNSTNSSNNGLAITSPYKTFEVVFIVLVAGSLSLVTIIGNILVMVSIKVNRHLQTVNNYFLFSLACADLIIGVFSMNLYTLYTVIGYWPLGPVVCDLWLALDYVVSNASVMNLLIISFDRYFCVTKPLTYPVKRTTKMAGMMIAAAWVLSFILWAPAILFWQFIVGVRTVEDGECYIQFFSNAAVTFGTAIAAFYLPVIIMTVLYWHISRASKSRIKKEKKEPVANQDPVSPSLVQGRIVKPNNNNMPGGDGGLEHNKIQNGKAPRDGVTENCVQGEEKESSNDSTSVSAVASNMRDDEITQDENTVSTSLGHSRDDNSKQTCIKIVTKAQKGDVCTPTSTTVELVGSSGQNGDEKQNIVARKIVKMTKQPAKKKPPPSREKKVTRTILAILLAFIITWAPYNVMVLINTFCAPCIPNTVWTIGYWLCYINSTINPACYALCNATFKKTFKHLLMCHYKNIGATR

SMILES | EC50 [1] [µM] | Activity [2] [%] | Activity [3] [%] | Ki [4] [µM] | IC50 [5] [µM] | inhibition [6] | Emax [7] [%] | IC50 [8] [µM] | Activity [9] [%] | IC50 [10] [µM] | IC50 [11] [µM]
c1ccc(C(c2ccccc2)C2CN3CCC2CC3)cc1 (stereo not given) | > 10 | 0.5 | 2 | 1.5 | 0.4 | Active | 14 | 0.2 | 7 | – | –
C(CN1CCCCC1)=C(c1ccccc1)c1ccccc1 | > 10 | 0.5 | 0.7 | 2.2 | 0.38 | inactive | 31 | 0.1 | 0.6 | 0.0759 | 0.372
C(=C1/CN2CCC1CC2)/c1ccccc1 | 3 | 1 | 2 | 2.1 | – | – | 25 | 6 | 7 | – | –
c1ccc(C(c2ccccc2)[N+]23CCN(CC2)CC3)cc1 | – | 1 | 0.7 | 8.5 | – | – | < 10 | 15 | 0.5 | – | –
C(=C1/CN2CCC1CC2)/c1cccnc1 | 2 | 5 | 22 | 1.6 | – | – | 31 | 10 | 56 | – | –
c1ccc(C[N+]23CCC(CC2)C(C(c2ccccc2)c2ccccc2)C3)cc1 (stereo not given) | 9 | 0.5 | 1 | 2.3 | 0.6 | inactive | 10 | 0.08 | 0.4 | – | –
N#CC(c1ccccc1)C1CN2CCC1CC2 (stereo not given) | – | 1 | 2 | 2.1 | – | – | < 10 | 23 | 6 | – | –
